Measured values published in patent US11578040B2, “[5]Helicene derivatives as molecular reporters for diagnostic applications and methods of synthesis therefor” (NATIONAL SCIENCE AND TECHNOLOGY DEVELOPMENT AGENCY, priority 2016, dated 2023).

Tests used:
antigen = test: Testing of binding reactivity of antibody after conjugation with molecular reporter on 96-well plates (HRP-labeled anti-mouse antibody, signal at 450 nm); settings: 2 μg/mL conjugated antibody, antigen-coated 96-well plate
Method: The binding reactivity of antibody conjugating molecular reporter (compound 6, compound 8, and compound 14) to antigen could be tested with an immobilization of antigen on wells of 96-well plates. The molecular reporter conjugated antibody was added into the wells. The antibody would bind to the antigen coating wells. Horseradish peroxidase labeled antibody specific to mouse antibody was used as a reporter molecule for reporting binding reactivity. The results of molecular reporter conjugated antibody were compared with results of antibody without molecular reporter conjugation.
The method for testing binding reactivity of molecular reporter conjugated antibody and antigen in 96-well plate consists of the following steps. • a) Prepare 2 μg/mL of antigen in carbonate buffer containing 50 mM carbonate, pH 9.6, and immobilize antigen (100 μL/well) in 96-well plate. • b) Incubate 96-well plate in step 1 at 4° C. for 12-16 hours. • c) Block non-specific binding with 300 μL/well of 2% bovine serum albumin in phosphate-buffered saline containing 0.05% Tween (PBST), and incubate at room temperature for 1 hour. • d) Wash 96-well plates in step 3 with 300 μL/well of PBST for 3 times. • e) Add 100 μL/ well of 2 μg/mL of antibody conjugating molecular reporter (compound 6, compound 8, and compound 14), and incubate at room temperature for 1 hour. • f) Wash 96-well plates in step 5 with 300 μL/well of PBST for 3 times. • g) Add 100 μL/well of horseradish peroxidase labeled antibody specific to mouse antibody (dilution at 1:10,000), and incubate at room temperature for 1 hour. • h) Wash 96-well plates in step 7 with 300 μL/well of PBST for 3 times. • i) Add 100 μL/well of substrate solution for horseradish peroxidase which is 3,3′,5,5′-Tetramethylbenzidine, and incubate at room temperature for 30 minutes. • j) Add 50 μL/well of sulfuric acid (H2SO4) for stop reaction. • k) Measure signals at 450 nm.

Row | Structure (SMILES) | binding of antibody conjugating molecular reporter to antigen (FIG. 5) (antigen) | effect of molecular reporter on binding reactivity of antibody compared with antibody without any conjugation (FIG. 5) (antigen) | melting point [°C]
1 | N#Cc1c(C#N)c2ccc3cc(OCCCCCC(=O)O)ccc3c2c2c1ccc1cc(OCCCCCC(=O)O)ccc12 [compound 6, 6,6′-((3,4-dicyanodibenzo[c,g]phenanthrene-8,13-diyl)bis(oxy))dihexanoic acid] | antibody could bind to antigen | did not affect the binding reactivity of antibody | 
2 | N#Cc1c(C#N)c2c(c3c1CCc1cc(OCCCCCC=O)ccc1-3)-c1ccc(OCCCCCC=O)cc1CC2 [compound 8, 8,13-bis((6-oxohexyl)oxy)-1,2,5,6-tetrahydrodibenzo[c,g]phenanthrene-3,4-dicarbonitrile] | antibody could bind to antigen | did not affect the binding reactivity of antibody | 135 to 139
